# Data as given in patent US20230271969A1, “NITROGEN-CONTAINING FUSED RING DERIVATIVE INHIBITOR, PREPARATION METHOD THEREFOR AND USE THEREOF” (Shanghai Hansoh Biomedical Co., Ltd., priority 2020, published 2023).
# Assays:
# NK3 receptors [1] = target: T1, NK3 receptors (Homo sapiens, UniProt P29371); test: Calcium ion fluidity (FLIPR) in cells with stable expression of NK3 receptors; type: cell-based; conditions: calcium signal, antagonist mode, read-out: NK3R IC50 (nM) FLIPR
# T1 construct: expressed in transfected cells
# T1 sequence (P29371 1-465): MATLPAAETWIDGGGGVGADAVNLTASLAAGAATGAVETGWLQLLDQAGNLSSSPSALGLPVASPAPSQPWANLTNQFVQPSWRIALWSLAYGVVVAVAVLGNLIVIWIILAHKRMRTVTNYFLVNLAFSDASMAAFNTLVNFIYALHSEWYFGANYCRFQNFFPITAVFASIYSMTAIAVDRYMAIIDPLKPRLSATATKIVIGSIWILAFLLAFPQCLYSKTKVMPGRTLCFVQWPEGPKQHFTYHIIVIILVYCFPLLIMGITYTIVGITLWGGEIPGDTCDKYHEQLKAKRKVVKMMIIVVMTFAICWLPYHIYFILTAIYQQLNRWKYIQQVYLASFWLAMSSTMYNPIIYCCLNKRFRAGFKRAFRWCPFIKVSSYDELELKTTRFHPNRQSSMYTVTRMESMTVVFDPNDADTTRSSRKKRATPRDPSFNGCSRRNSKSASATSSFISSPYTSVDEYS
# Description: Determination of the Effect of the Compounds of the Present Invention on Calcium Ion Fluidity in Cells with Stable Expression of NK3 Receptors
# Experimental objective: The objective of this test example was to determine the inhibitory effect of the compounds on NK3 receptors.
# Experimental Methods: • 1. […] Probenecid and BSA were freshly added on the day of the experiment. The buffers for the experiments included dye buffer, compound dilution buffer and the like. • 2. […] The culture medium was discarded, and 20 μL of dye was added. The cells were incubated at 37° C. in the dark for 60 min, and then the calcium signal was read. • 4. The antagonist was prepared before the experiments. […] The plate was transferred to FLIPR, and 6× concentration of the agonist compound was added at 5 μL/well. The values were read and the data were saved by using FLIPR. The total assay volume was 30 μL, comprising 20 μL/well of dye buffer, 5 μL/well of 5× concentration of the experimental compound, and 5 μL/well of 6× concentration of the agonist compound.
# The calcium signal value was read by FLIPR. The output of each sampling time point in the experiment was calculated as the ratio of the signals at wavelengths of 340/510 nm to 380/510 nm. The maximum minus minimum value was calculated from the ratio signal curve. The IC50 value of the compound was calculated by fitting the data of inhibition rate percentage and ten concentrations to the parametric nonlinear logistic equation by using GraphPad prism.
# NK3 receptors [2] = target: T1, NK3 receptors; test: Antagonism of IP1 in HEK293 cells with stable expression of NK3; type: cell-based; conditions: agonist Senktide 3 nM, read-out: NK3R IC50 (nM) IP1
# Procedure: Determination of the Effect of the Compounds of the Present Invention on IP1 in HEK293 Cells with Stable Expression of NK3
# The objective of this test example was to determine the antagonism effect of the compounds on the activity of HEK293-NK3 cells.
# 3. Experimental Methods: • 1. […] HEK293-NK3 cell line was cultured in complete medium and seeded in the coated dishes at 37° C., 5% CO2 until 70%˜90% confluence. • 3. […] The cells were digested and resuspended in 1× Stimulation Buffer (IP-ONE Gq Kit), seeded into the 384-well cell culture plate (which contained the compound to be tested) at 5,000 cells/well/5 μL by using Multidrop Combi. The culture plate was centrifuged at 300 rpm at room temperature for 60 seconds, and then incubated at 37° C., 5% CO2 for 15 minutes. • 5. The cell culture plate was taken out from the CO2 incubator. […] The culture plate was centrifuged at 300 rpm at room temperature for 60 seconds, and then incubated at 37° C., 5% CO2 for 2 hours. • 6. The cell culture plate was taken out from the CO2 incubator. 5 μL of IP1 d2 reagent and then 5 μL of IP1 Tb Cryptate Antibody reagent were added by using Multidrop Combi. The culture plate was centrifuged at room temperature at 300 rpm for 60 seconds, and left to stand at room temperature for 1 hour. • 7. The plate was read by using EnVision Multilabel Reader, and data were collected at the same time.
# The fluorescence signal ratio (Ratio) was read and collected by EnVision Multilabel Reader. According to the readings of the Low control (DMSO control) and High control (p)ositive compound) experimental groups, the antagonism percentage data were calculated as {% antagonism=(Ratio sample−Ratio low control)/(Ratio high control−Ratio low control)×100}.
Structure (SMILES),IC50 (NK3 receptors [1]) [nM],IC50 (NK3 receptors [2]) [nM]
"[2H]c1cc(C(=O)N2CCn3c(-c4nc5cc(F)c(F)cc5s4)nnc3[C@H]2C)ccc1Cl [Example 99, (R)-(4-Chlorophenyl-3-d)(3-(5,6-difluorobenzo[d]thiazol-2-yl)-8-methyl-5,6-dihydro-[1,2,4]triazolo[4,3-a]pyrazin-7(8H)-yl)methanone]",56.2,23.3
"[2H]c1cc(C(=O)N2CCn3c(-c4nc5ccc(F)cc5s4)nnc3[C@H]2C)ccc1Cl [Example 101, (R)-(4-Chlorophenyl-3-d)(3-(6-fluorobenzo[d]thiazol-2-yl)-8-methyl-5,6-dihydro-[1,2,4]triazolo[4,3-a]pyrazin-7(8H)-yl)methanone]",86.7,61
"Cc1ccc2nc(-c3nnc4n3CCN(C(=O)c3ccc(Cl)c(Cl)c3)[C@@H]4C)sc2c1 [Example 26, (R)-(3,4-Dichlorophenyl)(8-methyl-3-(6-methylbenzo[d]thiazol-2-yl)-5,6-dihydro-[1,2,4]triazolo[4,3-a]pyrazin-7(8H)-yl)methanone]",96.7,36.1
"C[C@@H]1c2nnc(-c3nc4ccc(Cl)cc4s3)n2CCN1C(=O)c1ccc(Cl)cc1 [Example 20, (R)-(3-(6-Chlorobenzo[d]thiazol-2-yl)-8-methyl-5,6-dihydro-[1,2,4]triazolo[4,3-a]pyrazin-7(8H)-yl)(4-chlorophenyl)methanone]",61,27.3
"C[C@@H]1c2nnc(-c3nc4cc(F)ccc4s3)n2CCN1C(=O)c1ccc(Cl)c(Cl)c1 [Example 11, (R)-(3,4-Dichlorophenyl)(3-(5-fluorobenzo[d]thiazol-2-yl)-8-methyl-5,6-dihydro-[1,2,4]triazolo[4,3-a]pyrazin-7(8H)-yl)methanone]",47.5,176
"COc1ccc2nc(-c3nnc4n3CCN(C(=O)c3ccc(F)cc3)[C@@H]4C)sc2c1 [Example 29, (R)-(4-Fluorophenyl)(3-(6-methoxybenzo[d]thiazol-2-yl)-8-methyl-5,6-dihydro-[1,2,4]triazolo[4,3-a]pyrazin-7(8H)-yl)methanone]",65.8,29
"COc1ccc2nc(-c3nnc4n3CCN(C(=O)c3ccc(Cl)cc3)[C@@H]4C)sc2c1 [Example 30, (R)-(4-Chlorophenyl)(3-(6-methoxybenzo[d]thiazol-2-yl)-8-methyl-5,6-dihydro-[1,2,4]triazolo[4,3-a]pyrazin-7(8H)-yl)methanone]",47.4,187
"Cc1ccc2nc(-c3nnc4n3CCN(C(=O)c3ccc(Cl)cc3)[C@@H]4C)sc2c1 [Example 25, (R)-(4-Chlorophenyl)(8-methyl-3-(6-methylbenzo[d]thiazol-2-yl)-5,6-dihydro-[1,2,4]triazolo[4,3-a]pyrazin-7(8H)-yl)methanone]",58.4,47.8
"C[C@@H]1c2nnc(-c3nc(N(C)C)ns3)n2CCN1C(=O)c1ccc(F)cc1 [Example 60, (R)-(3-(3-(Dimethylamino)-1,2,4-thiadiazol-5-yl)-8-methyl-5,6-dihydro-[1,2,4]triazolo[4,3-a]pyrazin-7(8H)-yl)(4-fluorophenyl)methanone]",205,190
"C[C@@H]1c2nnc(-c3nc4cc(F)ccc4s3)n2CCN1C(=O)c1ccc(F)cc1 [Example 9, (R)-(3-(5-Fluorobenzo[d]thiazol-2-yl)-8-methyl-5,6-dihydro-[1,2,4]triazolo[4,3-a]pyrazin-7(8H)-yl)(4-fluorophenyl)methanone]",33.3,46
"Cc1cccc2cc(-c3nnc4n3CCN(C(=O)c3ccc(Cl)c(Cl)c3)[C@@H]4C)nn12 [Example 49, (R)-(3,4-Dichlorophenyl)(8-methyl-3-(7-methylpyrazolo[1,5-a]pyridin-2-yl)-5,6-dihydro-[1,2,4]triazolo[4,3-a]pyrazin-7(8H)-yl)methanone]",86.7,135
"C[C@@H]1c2nnc(-c3nc4ccc(F)cc4s3)n2CCN1C(=O)c1ccc(Cl)c(Cl)c1 [Example 14, (R)-(3,4-Dichlorophenyl)(3-(6-fluorobenzo[d]thiazol-2-yl)-8-methyl-5,6-dihydro-[1,2,4]triazolo[4,3-a]pyrazin-7(8H)-yl)methanone]",97.6,41.9
"[2H]c1cc(C(=O)N2CCn3c(-c4nc5ccc(Cl)cc5s4)nnc3[C@H]2C)ccc1F [Example 103, (R)-(3-(6-Chlorobenzo[d]thiazol-2-yl)-8-methyl-5,6-dihydro-[1,2,4]triazolo[4,3-a]pyrazin-7(8H)-yl)(4-fluorophenyl-3-d)methanone]",27.1,16
"Cc1ccc2nc(-c3nnc4n3CCN(C(=O)c3ccc(F)cc3)[C@@H]4C)sc2c1 [Example 24, (R)-(4-Fluorophenyl)(8-methyl-3-(6-methylbenzo[d]thiazol-2-yl)-5,6-dihydro-[1,2,4]triazolo[4,3-a]pyrazin-7(8H)-yl)methanone]",45.6,49.5
"COc1ccc2nc(-c3nnc4n3CCN(C(=O)c3ccc(Cl)c(Cl)c3)[C@@H]4C)sc2c1 [Example 31, (R)-(3,4-Dichlorophenyl)(3-(6-methoxybenzo[d]thiazol-2-yl)-8-methyl-5,6-dihydro-[1,2,4]triazolo[4,3-a]pyrazin-7(8H)-yl)methanone]",86.7,43.2
"C[C@@H]1c2nnc(-c3nc4ccc(Cl)cc4s3)n2CCN1C(=O)c1ccc(F)cc1 [Example 19, (R)-(3-(6-Chlorobenzo[d]thiazol-2-yl)-8-methyl-5,6-dihydro-[1,2,4]triazolo[4,3-a]pyrazin-7(8H)-yl)(4-fluorophenyl)methanone]",10.9,15.6
"[2H]c1cc(C(=O)N2CCn3c(-c4nc5ccc(F)cc5s4)nnc3[C@H]2C)ccc1F [Example 61, (R)-(3-(6-Fluorobenzo[d]thiazol-2-yl)-8-methyl-5,6-dihydro-[1,2,4]triazolo[4,3-a]pyrazin-7(8H)-yl)(4-fluorophenyl-3-d)methanone]",78.9,108
"[2H]C([2H])([2H])N(c1nsc(-c2nnc3n2CCN(C(=O)c2ccc(Cl)cc2)[C@@H]3C)n1)C([2H])([2H])[2H] [Example 107, (R)-(3-(3-(Bis(methyl-d3)amino)-1,2,4-thiadiazol-5-yl)-8-methyl-5,6-dihydro-[1,2,4]triazolo[4,3-a]pyrazin-7(8H)-yl)(4-chlorophenyl)methanone]",184,80.5
"Cc1cccc2sc(-c3nnc4n3CCN(C(=O)c3ccc(Cl)cc3)[C@@H]4C)nc12 [Example 23, (R)-(4-Chlorophenyl)(8-methyl-3-(4-methylbenzo[d]thiazol-2-yl)-5,6-dihydro-[1,2,4]triazolo[4,3-a]pyrazin-7(8H)-yl)methanone]",97.8,43.6
"Cc1cccc2sc(-c3nnc4n3CCN(C(=O)c3ccc(F)cc3)[C@@H]4C)nc12 [Example 22, (R)-(4-Fluorophenyl)(8-methyl-3-(4-methylbenzo[d]thiazol-2-yl)-5,6-dihydro-[1,2,4]triazolo[4,3-a]pyrazin-7(8H)-yl)methanone]",73.3,57
